In one data set the test system is P. berghei. In words: In vivo activity in P. berghei (Pb) infected mice. As for the experimental part:
(§1) The ability of dispiro 1,2,4-trioxolane derivatives according to the invention to show antimalarial efficacy in vitro and in vivo was tested as described in Charman, et al, 2011, PNAS, 108, 4400-4405 against chloroquine-resistant (K1) and chloroquine-sensitive (NF54) strains of P. falciparum in vitro (Vennerstrom et al. 2004, Nature, 430, 900-904).
(§2) The in vivo activity is shown in P. berghei (Pb) infected mice in terms of the percentage of inhibition of parasitemia following compound administration and the number of survival days.

Data set [1] deals with CYP isoforms (1A2, 2B6, 2C8, 2C9, 2C19, 2D6, 3A4/5). Kind of data set: Time-dependent CYP inhibition (IC50 shift), CYP isoforms. Format: in vitro ADME. Particulars: human liver microsomes, 30 min pre-incubation with or without NADPH. As for the experimental part:
Time-dependent CYP inhibition can occur as a result of irreversible interactions of a test compound with a CYP450 enzyme (i.e. mechanism-based inhibition; MBI) or, alternatively, by reversible product inhibition (i.e. whereby the metabolite of the test compound is responsible for inhibition of the CYP). The potential for time-dependent CYP inhibition was assessed using CYP-specific metabolic pathways in human liver microsomes by measuring the formation of metabolites known to be formed by individual CYP isoforms (Table 5) according to the following protocol (probe substrates, metabolites and incubation times):
The assessment of time-dependent inhibition was based on measurement of the “IC50 shift”, whereby the IC50 was measured following pre-incubation of test compound (or reference inhibitor) in the absence or presence of NADPH. A 10-fold dilution step was incorporated following the pre-incubation to minimize reversible product inhibition (by potential metabolites of test compound) such that evidence of time-dependent inhibition is more likely to reflect mechanism-based inhibition. The maximum concentration of test compound in the pre-incubation mixture (containing either 1 or 2 mg/mL microsomal protein and 1.0% v/v DMSO) was 200 μM, and the potential for precipitation of test compound was closely monitored at the time of spiking. […]
For orientation: Liver microsomes are vesicles of endoplasmic reticulum, rich in cytochrome P450 enzymes.

The nature of data set [2]: Solubility in biorelevant media. Format: physicochemical. Particulars: PBS, pH 7.4.
The nature of a further data set: CLint, H. It counts as in vitro ADME, human. Conditions: H (first of H, D, R, M).
Data set [3] is described as follows: Solubility in biorelevant media. Format: physicochemical. As for the experimental part:
Compounds were each accurately weighed into individual screw cap polypropylene tubes and media added to give a nominal minimum target compound concentration of 2.2 mg/mL. Samples were vortex mixed and placed in a 37° C. incubator where they were continually mixed on an orbital shaker (IKA® VXR basic Vibrax® orbital shaker) at 600 rpm. Incubation times were 1 hour for fasted state simulated gastric fluid (FaSSGF) and 5 hours for fasted and fed state simulated intestinal fluids (FaSSIF-V2 and FeSSIF-V2 respectively). Sampling was carried out by centrifuging each sample at 10,000 rpm for 3 minutes, transferring 300 μL, aliquots into fresh Eppendorf tubes and centrifuging these tubes again at 10,000 rpm for 3 minutes. Triplicate aliquots of each final supernatant were diluted 20-fold in 50% aqueous methanol, and then further diluted in 50% aqueous acetonitrile to be within an appropriate concentration range for analysis by LC-MS. LC-MS methods and validation data for the analysis of solubility samples are shown in Table 2 below and the media composition is shown in Table 3.

Data set [4] deals with chloroquine-sensitive (NF54) strain of P. falciparum. Kind of data set: In vitro antimalarial activity, NF54 strain. It counts as cell-based. As for the experimental part:
as §1, §2

The next data set can be described thus: CLint, R. Format: in vitro ADME, rat. Conditions: R (third of H, D, R, M).
Another data set in a line: CLint, M. It counts as in vitro ADME, mouse. Conditions: M (fourth of H, D, R, M).
The subject of data set [5] is 7 CYP isoforms (1A2, 2B6, 2C8, 2C9, 2C19, 2D6, 3A4/5). Kind of data set: Cyp inhibition IC50, 7 isoforms, human liver microsomes. Format: in vitro ADME.
Description: The assessment of time-dependent inhibition was based on measurement of the “IC50 shift”, whereby the IC50 was measured following pre-incubation of test compound (or reference inhibitor) in the absence or presence of NADPH. A 10-fold dilution step was incorporated following the pre-incubation to minimize reversible product inhibition (by potential metabolites of test compound) such that evidence of time-dependent inhibition is more likely to reflect mechanism-based inhibition. The maximum concentration of test compound in the pre-incubation mixture (containing either 1 or 2 mg/mL microsomal protein and 1.0% v/v DMSO) was 200 μM, and the potential for precipitation of test compound was closely monitored at the time of spiking. […] On this basis, it is assumed that test compounds were fully dissolved at all concentrations in the pre-incubation mixtures. Reference inhibitors (both mechanism-based and reversible inhibitors) were included to validate the assay. […]
Another data set in a line: CLint, D. Conditions: D (second of H, D, R, M). It counts as in vitro ADME, dog.
Data set [6] relates to chloroquine-resistant (K1) strain of P. falciparum. In words: In vitro antimalarial activity, K1 strain. Format: cell-based. As for the experimental part: as §1, §2
Data set [7] concerns artemisinin-resistant P. falciparum isolate from Cambodia. Kind of data set: Ring-stage survival assay (RSA0-3h). It counts as cell-based. Conditions: for RSA values ± SEM (survival): 6 h exposure, 66 h post-treatment. As for the experimental part: Agents Chemother. 57:914-923), but with a few modifications in the drug washing procedure to ensure that no residual peroxide was present during the 66 h post-treatment period. Briefly, 0-3 h post-invasion ring stages were adjusted to 1% parasitemia and 2.5% haematocrit by adding uninfected erythrocytes, transferred in a total volume of 1 mL into 48-well plates and exposed for 6 h to a range of concentrations ([…]) of DHA or one of the compounds tested in this study. After 6 h, cultures were transferred to 15 mL conical tubes, centrifuged at 1400 rpm (400 g) for 2 min and carefully washed 2 times with 12 mL of culture medium. […] After washing, blood pellets were resuspended in complete compound-free culture medium, transferred into new wells and cultured for 66 h in standard conditions. Table 8 below presents the Ring-stage survival assay (RSA) values as tested in Wells et al., 2015, supra for compounds of the invention and comparative compounds.

Values after ≈ are worked out from the molar mass of the structure shown. Values joined by “and” are separate entries in the source; they are usually repeats but may differ in a detail not shown here. Equal entries are not always repeated. Where two headings read alike, the source gives them in different places. Marks after values point to notes of the source that are not given here. A value given as a limit tells only on which side of the number the result lay.

On to `c1cc(C2CCC3(CC2)OOC2(O3)C3CC4CC(C3)CC2C4)ccc1OCCC1CCNCC1` (stereo not drawn) [Compound (2), cis-Adamantane-2-spiro-3′-8′-[4′-[2′-(4′-piperidinyl)ethoxy]phenyl]-1′,2′,4′-trioxaspiro [4.5]decane], for which the “% activity (percentage of inhibition of parasitemia)” value is 99.4% in the data set on P. berghei (Pb 1 × 10 mg/kg) and 99.5% in the data set with P. berghei (Pb 1 × 30 mg/kg). Besides, the Survival days in the data set on P. berghei (Pb 1 × 10 mg/kg) was 13.4 days; in the data set on P. berghei (Pb 1 × 30 mg/kg), more than 30 days. Further, in data set [1], the “Time Dependent Inhibition” value is “none”. In addition, the “Conc. (solubility)” value in data set [2] was <1^c μg/mL; in data set [3] (FaSSGF, 37° C., 1 hour), 5.6 µg/mL; in data set [3] (FaSSIF-V2, 37° C., 5 hours), 293 µg/mL; in data set [3] (FeSSIF-V2, 37° C., 5 hours) it was 1632 µg/mL. For the same molecule, in “CLint, H”, the “CLint H” value is less than 7 µL/min/mg. Besides, the “IC50 NF54” value in data set [4] is reported as 1.4 ng/mL (≈ 0.00299 µM). Besides, in the data set “CLint, R”, the “CLint R” value is less than 7 µL/min/mg. Besides, the “CLint M” value in “CLint, M” was determined as 16 µL/min/mg. The IC50 in data set [5] is more than 20 µM. The “CLint D” value in “CLint, D” amounted to 9 µL/min/mg. Besides, the “IC50 K1” value in data set [6] is on record as 1.4 ng/mL (≈ 0.00299 µM). In addition, the “RSA values ± SEM (survival)” value is recorded as 0.76 ± 0.60% in [7] (49 nM); 0% in data set [7] (88 nM); 0% in data set [7] (175 nM); 0% in data set [7] (350 nM); 0% in data set [7] (700 nM). Also, the “growth of the artemisinin-resistant isolate” value in [7] (700, 350, 175 and 88 nM) is given as “completely inhibiting the growth”.

For `CC1(C)CC(O)(COc2ccc([C@H]3CC[C@]4(CC3)OOC3(O4)C4CC5CC(C4)CC3C5)cc2)CC(C)(C)N1` (stereo partly drawn) [Compound (1), cis-Adamantane-2-spiro-3′-8′-[4′-[(4′-hydroxy-2′,2′,6′,6′-tetramethyl-4′-piperidinyl)methoxy]phenyl]-1′,2′,4′-trioxaspiro[4.5]decane], the “% activity (percentage of inhibition of parasitemia)” value with P. berghei (Pb 1 × 10 mg/kg) stood at 99.1%; with P. berghei (Pb 1 × 30 mg/kg), 99.6%. The figures for the Survival days in the data set with P. berghei (Pb 1 × 10 mg/kg) and in the data set with P. berghei (Pb 1 × 30 mg/kg) were 13.6 days and more than 30 days, respectively. Further, the “Conc. (solubility)” value in data set [2] was 10.6 µg/mL; in [3] (FaSSGF, 37° C., 1 hour) it was 10.1 µg/mL; in data set [3] (FaSSIF-V2, 37° C., 5 hours), 1516 µg/mL; in [3] (FeSSIF-V2, 37° C., 5 hours) it was more than 2000 µg/mL. Also, the “IC50 NF54” value in data set [4] was 0.9 ng/mL (≈ 0.00171 µM). For the same molecule, the “IC50 K1” value in data set [6] was determined as 1.2 ng/mL (≈ 0.00228 µM). Also, the “RSA values ± SEM (survival)” value was 1.29 ± 1.24% in data set [7] (49 nM); 0.16 ± 0.23% in data set [7] (88 nM); 0.11 ± 0.08% in data set [7] (175 nM); 0% in data set [7] (350 nM); 0% in [7] (700 nM).

In the case of `C[C@H]1[C@@H](O)O[C@@H]2O[C@@]3(C)CC[C@H]4[C@H](C)CC[C@@H]1[C@@]24OO3` [DHA, Dihydroartemisinin, reference compound], the “RSA values ± SEM (survival)” value is 74% and 73.5 ± 12.3% in data set [7] (49 nM); 60.03 ± 4.99% in data set [7] (88 nM); 47.94 ± 3.88% in [7] (175 nM); 37.67 ± 3.65% in [7] (350 nM); 33% and 33.02 ± 4.39% in [7] (700 nM).

As to `c1cc([C@H]2CC[C@]3(CC2)OO[C@]2(O3)C3CC4CC(C3)CC2C4)ccc1OCCN1CCOCC1` [Compound C1, reference compound], the “% activity (percentage of inhibition of parasitemia)” value in the data set on P. berghei (Pb 1 × 10 mg/kg) is 99.5%; with P. berghei (Pb 1 × 30 mg/kg) it was 98.1%. The Survival days in the data set on P. berghei (Pb 1 × 10 mg/kg) is 15.2 days; in the data set with P. berghei (Pb 1 × 30 mg/kg), more than 30 days. Besides, the “Conc. (solubility)” value in [3] (FaSSGF, 37° C., 1 hour) stood at 79.0 µg/mL; in data set [3] (FaSSIF-V2, 37° C., 5 hours), 40.6 µg/mL; in [3] (FeSSIF-V2, 37° C., 5 hours), 563 µg/mL. Moreover, the solubility at 1 h in data set [3] (fasted state simulated gastric fluid (FaSSGF), 37 °C, fassgf or other biorelevant, thermodynamic from solid, FaSSGF, 37° C., 1 hour, read-out: Conc. (solubility)) is 51.9 µg/mL (≈ 111 µM). For the same molecule, the solubility at 5 h in data set [3] (fasted state simulated intestinal fluid (FaSSIF-V2), 37 °C, fassif, thermodynamic from solid, FaSSIF-V2, 37° C., 5 hours, read-out: Conc. (solubility)) is 22.3 µg/mL (≈ 47.5 µM); in data set [3] (fed state simulated intestinal fluid (FeSSIF-V2), 37 °C, fessif, thermodynamic from solid, FeSSIF-V2, 37° C., 5 hours, read-out: Conc. (solubility)), 557 µg/mL (≈ 1190 µM). Also, the 50% inhibitory concentration (IC50) in data set [4] (Plasmodium falciparum) worked out at 2 ng/mL (≈ 0.00426 µM). Besides, the “RSA values ± SEM (survival)” value is recorded as 0.93 ± 0.93% in data set [7] (88 nM), 0.73 ± 1.03% in data set [7] (175 nM), 0.73 ± 1.03% in data set [7] (350 nM) and 0.73 ± 1.03% in data set [7] (700 nM).

By IC50 is commonly meant the concentration needed to halve the response being measured. Usually solubility stands for the concentration that dissolves in the medium under given conditions.

Values taken from patent publication US20200377483A1, “NEW ANTI-MALARIAL AGENT” (MMV MEDICINES FOR MALARIA VENTURE, priority 2016, published 2020).
